The test system of data set [1] is HBV. The following applies: Science, 2003, 299, 893-896; cited from earlier work.
Data set [2] can be described thus: Cytotoxicity test with CellTiter Glo. It is filed as cell-based. The conditions noted are these: human, HepG2.2.15 cells, highest concentration 150 μM, read-out: CC50 values of the compounds of the invention. Put shortly:
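HepG2.2.15 cells (3000/well) exposed to serially diluted compound, highest final concentration 150 μM, for 4 days at 37 °C. Viability read by CellTiter Glo, cytotoxicity % taken relative to DMSO controls, and CC50 obtained by four-parameter nonlinear regression.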
A general note: Cellular ATP, detected with luciferase, serves as a proxy for viable cell number.

The test system of data set [3] is HBV. Kind of data set: Test of anti HBV activity in vitro (viral DNA by qPCR). It is filed as cell-based. The following applies: Hepatitis B virus; HepG2.2.15 cells, viral DNA in cell culture supernatant by qPCR; read-out: EC50 values of the compound of the invention on viral replication. In short, it runs like this: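 HepG2.2.15 cells (integrated HBV genome) were grown to confluence, then treated with compound in 4-fold dilutions from 4 μM final (0.5% DMSO). Secreted viral DNA in supernatant was quantified by SYBR qPCR against an HBV plasmid standard curve; EC50 from four-parameter nonlinear regression of concentration versus copy number.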
Background: In qPCR the cycle at which signal appears reflects the starting amount.

Bounds are passed on as bounds.

As a reminder, the IC50 is the point on the concentration scale where inhibition reaches its midpoint. By CC50 is commonly meant the concentration at which the toxic effect on the cells reaches its halfway point. As a reminder, the EC50 is the concentration needed to bring the measured effect to its halfway point.

`Nc1ccn([C@@H]2CS[C@H](CO)O2)c(=O)n1` [lamivudine]: in the data set on HBV [1], the IC50 was 300 nM.

On to `COC(=O)C1=C(CN2CCN3C(=O)N(c4ccc(-c5ccc(C(=O)O)cc5F)c(F)c4)C[C@@H]3C2)NC(c2nccs2)=N[C@H]1c1ccc(F)cc1Cl` [Example 33, 4′-((S)-7-(((R)-6-(2-chloro-4-fluorophenyl)-5-(methoxycarbonyl)-2-(thiazol-2-yl)-3,6-dihydropyrimidin-4-yl)methyl)-3-oxohexahydroimidazo[1,5-a]pyrazin-2(3H)-yl)-2,2′-difluoro-[1,1′-diphenyl]-4-carboxylic acid], for which, in data set [2], the half-maximal cytotoxic concentration (CC50) at 4 days was over 150000 nM. Besides, the EC50 in the data set with HBV [3] came to 7 nM.

For the molecule `COC(=O)C1=C(CN2CCN3C(=O)N(c4ccc(-c5ccc(CCC(=O)O)cc5)cc4)C[C@@H]3C2)NC(c2nccs2)=N[C@H]1c1ccc(F)cc1Cl` [Example 126, 3-(4′-((S)-7-(((R)-6-(2-chloro-4-fluorophenyl)-5-(methoxycarbonyl)-2-(thiazol-2-yl)-3,6-dihydropyrimidin-4-yl)methyl)-3-oxohexahydroimidazo[1,5-a]pyrazin-2(3H)-yl)-[1,1′-biphenyl]-4-yl)propanoic acid], the CC50 at 4 days in data set [2] is over 150000 nM. Besides, the EC50 in the data set on HBV [3] was determined as 6.7 nM.

The values are drawn from patent publication US11142527B2, “Dihydropyrimidine compounds and uses thereof in medicine” (SUNSHINE LAKE PHARMA CO., LTD., priority 2017, dated 2021).
